Data from article PMC5681660, “Reduced hepatitis B and D viral entry using clinically applied drugs as novel inhibitors of the bile acid transporter NTCP” (Scientific Reports, 2017).

Experiments:
human NTCP [1] = target: T1, human NTCP (Homo sapiens, UniProt Q14973); assay: Screening fluorescent competitive Myrcludex B-FITC binding assay (96-well, 10 µM drug); conditions: 10 µM drug
T1 sequence (Q14973 1-349): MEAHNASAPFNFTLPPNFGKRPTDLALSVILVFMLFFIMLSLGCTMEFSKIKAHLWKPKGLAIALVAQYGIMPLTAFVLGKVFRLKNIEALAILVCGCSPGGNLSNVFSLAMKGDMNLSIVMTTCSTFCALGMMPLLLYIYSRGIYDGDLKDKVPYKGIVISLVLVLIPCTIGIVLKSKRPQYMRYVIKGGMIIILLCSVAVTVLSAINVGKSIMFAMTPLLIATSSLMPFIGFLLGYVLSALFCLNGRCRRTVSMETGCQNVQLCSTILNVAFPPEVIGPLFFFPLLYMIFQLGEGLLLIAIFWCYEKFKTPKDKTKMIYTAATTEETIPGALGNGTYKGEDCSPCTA

human NTCP [2] = target: T1, human NTCP; assay: Screening taurocholate uptake assay (96-well, [14C]taurocholate, 10 µM drug); conditions: for B-score functional assay: 10 µM drug
HDV = HDV infection of HepaRG cells (HDAg immunofluorescence); assay type: cell-based, hepatitis delta virus; conditions: HDAg positive cells, day 5; concentration-dependent
[3] = screen, Myrcludex B-FITC binding
[4] = combined ranking from functional and binding screening assays
[5] = Prestwick library screen, B-score of Myrcludex B-FITC binding
[6] = Prestwick library screen, B-score of taurocholate uptake
[7] = combined ranking from functional and binding assay B-scores
[8] = Prestwick library screen, Myrcludex B-FITC binding
[9] = Prestwick library screen, taurocholate uptake
[10] = ranking score beside the functional and binding assay B-scores of the screen

B-score binding assay (human NTCP [1]; [5])	B-score functional assay (human NTCP [2]; [6])	Ranking score (human NTCP [2]; [7])	Compound	B-score binding assay (human NTCP [1]; [3])	B-score functional assay (human NTCP [2]; screen, taurocholate uptake)	other results
			O=P(O)(O)C(O)(Cn1ccnc1)P(=O)(O)O [Zoledronic acid hydrate]	-0.262	-0.476	Ranking score (human NTCP [2]; [4]): 422.203
0.365	3.016	1038.21	NS(=O)(=O)Cc1noc2ccccc12 [Zonisamide]			
1.26	0.249	950.167	CN(C)CCOC1=Cc2ccccc2Sc2ccc(Cl)cc21 [Zotepine]			
			CCCCC1=NC2(CCCC2)C(=O)N1Cc1ccc(-c2ccccc2-c2nnn[nH]2)cc1 [irbesartan, reference compound]			HDV infection in HepaRG cells (in words) (HDV): reduce; NTCP inhibition in the screen (in words) (human NTCP [2]; 10 µM, both screening assays): confirmed NTCP inhibition; position among the hits of the screen (combined ranking of both screening assays) (human NTCP [2]; 1280 drugs at 10 µM, TC uptake and Myrcludex B binding screens combined): ≤ 150; Ranking score (human NTCP [2]; ranking over the functional and the binding screening assay): 197.737; B-score functional assay (human NTCP [2]; screening taurocholate uptake): -3.733; HBV infection in HepaRG cells (in words) (HBV; HBeAg, HBsAg, HBcAg, concentration-dependent): reduce; concentration effective in reducing HBeAg and HBsAg production (HBV; HepaRG cells infected with HBV, supernatant day 7 to 10): 17 µM
1.256	0.733	1039.8	(-) -Levobunolol hydrochloride			
			Cyanocobalamin			B-score binding assay (human NTCP [1]; [8]): 0.087; B-score functional assay (human NTCP [2]; [9]): 0.223; Ranking score (human NTCP [2]; [10]): 774.968
			Deoxycorticosterone	-0.204	-0.349	Ranking score (human NTCP [2]; [4]): 460.68
			Eburnamonine (-)	-0.173	-1.058	Ranking score (human NTCP [2]; [4]): 349.983
			Norgestrel-(-)-D			B-score binding assay (human NTCP [1]; [8]): 0.069; B-score functional assay (human NTCP [2]; [9]): 0.036; Ranking score (human NTCP [2]; [10]): 704.84
0.801	0.83	1002.4	Spiramycin			
			Tyloxapol	0.59	-1.163	

Compound	B-score binding assay (human NTCP [1]; [5])	B-score functional assay (human NTCP [2]; [6])	Ranking score (human NTCP [2]; [7])	B-score binding assay (human NTCP [1]; [3])	B-score functional assay (human NTCP [2]; screen, taurocholate uptake)	other results
Bacitracin	0.785	1.013	1026.66			
